Values quoted from earlier work as cited in patent EP0374725A2, “Transdermal therapeutic system having norpseudoephedrine as the active compound” (LTS Lohmann Therapie-Systeme GmbH & Co. KG, priority 1988, dated 1990).

Conditions: background statement, amphetamines as medium-strong bases

## C[C@H](N)[C@@H](O)c1ccccc1 [D-Norpseudoephedrin]
  pka-Wert: 8,9
